From a melting point compilation (Tetko et al.; mined from patent text by program, amines drawn as free bases though some values may be those of a salt)

| SMILES | melting point |
| --- | --- |
| CC1CCN(c2ccc([N+](=O)[O-])cc2C(=O)c2ccccc2Cl)CC1 | 84 °C |
| O=C1Cc2cccc(S(=O)(=O)c3ccc(Cl)cc3)c2N1 | 218 to 221 °C |
| COc1ccnc(C(=O)N[C@H]2COC[C@H](CC3CCCCC3)[C@@H](OCC(C)C)[C@H](C)OC2=O)c1O | 89 to 92 °C |
| Cc1cc(Nc2nccc(-c3sc(N)nc3C)n2)ccc1N1CCOCC1 | 256 to 257 °C |
| O=C1N(Cc2cnccc2C(F)(F)F)c2ccccc2C12COc1cc3c(cc12)OCCO3 (stereo unspecified) | 131 to 132 °C |
| CC(C)(C)OC(=O)N1CCC(O)(CS(=O)(=O)NC(c2ccccc2)c2ccccc2)CC1 | 121 to 123 °C |
| CC1(C)CCC(C)(C)c2cc(C(=O)Nc3ccc(OCCN4CCOCC4)cc3)ccc21 | 134 to 136 °C |
| CCOC(=O)C(C(=O)OCC)[C@H](C[N+](=O)[O-])c1ccccc1 | 45 to 47 °C |
| CSCCc1nc(OCC(F)(F)F)c(C#N)c(N2CCc3ccccc3CC2)n1 | 97 to 100 °C |
| N#Cc1ncccc1CCc1ccc(F)cc1 | 48 to 49 °C |
| O=C(Cc1ccccn1)c1ccccc1[NH+]([O-])C(=O)c1ccccc1 (stereo unspecified) | 192 to 194 °C |
| CCc1noc(C=C(N)c2ccccc2)c1C(=O)NC | 125 to 132 °C |
| Cc1cc(C(=O)C(=O)c2ccc(OC(F)F)cc2)ccc1F | 77 to 78 °C |
| CC1CC(=O)C(C(=O)c2ccc(C(F)(F)F)cc2[N+](=O)[O-])C(=O)O1 (stereo unspecified) | 135 to 136 °C |
| Cc1ccc(-c2ccc3c(c2)C=C(C(=O)Nc2ccc(CN4CCN(C(c5ccccc5)c5ccccc5)CC4)cc2)CC3)cc1 | 217 to 218 °C |
| COc1ccc(NS(=O)(=O)c2ccccc2Br)cc1N(C)C1CCN(C)CC1 | 119 to 121 °C |
| Cc1ccc(-c2ccc(S(=O)(=O)Nc3onc(C)c3Br)s2)cc1 | 175 °C |
| CCCCCCCCCCCCOc1ccc(NC(=O)C(=O)OCC)cc1 | 70.5 to 72 °C |
| C[C@H](C/C=C/C=C/C(C)(C)O)[C@H]1CC[C@H]2[C@@H](O)CCC[C@]12C | 110 to 112 °C |
| CN1C(=O)[C@@H](NC(=O)[C@H](N)Cc2ccccc2)N=C(C2CCCCC2)c2ccccc21 | 75 to 78 °C |
| COc1ccc(C(=O)Nc2cccc3[nH]ccc23)c(O)c1 | 190 °C |
| Cc1cc2ncnn2nc1OCCCC(C)(C)CCS(N)(=O)=O | 154 to 155 °C |
| COc1cccc(-c2cn3cc(C(=O)NCCCCCCC(=O)NO)sc3n2)c1 | 209 to 211 °C |
| CN(C)C(=O)C(c1ccc(N)cc1)C1(O)CCCCC1 (stereo unspecified) | 169 to 170 °C |
| Cc1c(NC(=O)c2ccc(-c3ccc4c(c3)CCO4)cc2F)ccc2cc(CN3CCCCC3)cnc12 | 202 to 203 °C |
| COc1ccc(CN(C)CCc2ccc(NC(=O)c3cccc4c(=O)c5cccc(OC)c5sc34)cc2)cc1OC | 151 °C |
| O=[N+]([O-])c1ccc(Sc2ncccn2)cc1 | 103 to 104 °C |

| SMILES | melting point |
| --- | --- |
| NC(=O)CNC(=O)c1cccc(-c2cccc3sc(Cc4cccc(C(F)(F)F)c4)nc23)c1 | 130 to 131 °C |
| NC(=NCC(F)(F)F)Nc1ccnc(SCCN2C(=O)c3ccccc3C2=O)n1 | 192 to 195 °C |
| COc1ccc(C(=O)CCC(=O)N[C@@H](C)C(=O)O)cc1 | 100 to 102 °C |
| N#CN=C(Nc1cccnc1)NC(NC(=O)c1ccc(Cl)cc1)C(F)(F)C(F)(F)F (stereo unspecified) | 177 to 178 °C |
| CN[C@@H]1COc2cc(Cl)cc(-c3ccccc3C)c2O1 | > 245 °C |
| CCOC(=O)c1ccc(NC(=O)C(c2ccc(Cl)cc2)c2ccc(Cl)cc2)cc1 | 171 to 172 °C |
| COc1ccc2ccc3c(c2c1)C(CC#N)CCO3 (stereo unspecified) | 122 to 123 °C |
| CC(CC(=O)c1ccccc1)C(=O)N[C@@H](CS)C(=O)O (stereo partly specified) | 78 to 105 °C |
| Nc1ccc(C(=O)NCC(=O)O)cc1F | 198 to 200 °C |
| C=C(C)Cc1c(C)c(NC(C)=O)cc(C)c1O | 183 to 185 °C |
| CCOC(=NC(=O)c1cc(C(F)(F)F)cc(C(F)(F)F)c1)N1Cc2ccccc2-c2ccccc2C1 | 129 to 130 °C |
| CCCCCCC(C)(C)c1ccc(C2CCCC(=O)C2)c(O)c1 (stereo unspecified) | 87 °C |
| COc1cc(C2CCC(c3cc(OC)c(OC)c(OC)c3)O2)cc(OC)c1OC (stereo unspecified) | 128 to 130 °C |
| O=C(N[C@H](Cc1ccc(C(F)(F)F)cc1)[C@@H](O)c1ccc(F)cc1)c1ccc2ccccc2c1 (racemic) | 174 to 175 °C |
| O=c1oc(OCc2ccccc2)nc2ccccc12 | 152 to 154 °C |
| Cc1[nH]c(C(=O)Nc2ccc3[nH]ccc3c2)c(C)c1-c1nc2ccc(C(=O)c3ccccc3)cc2[nH]1 | 167 to 169 °C |
| CN(C)C=C(C#N)C(=O)c1c[nH]c2ccccc12 | 187 to 188 °C |
| C=C1CCCC2(C)C1=CC(=O)C1C3CCC(=O)C3(C)CCC12 (stereo unspecified) | 132 °C |
| OCCCN1CC=C(c2cn(-c3ccc(F)cc3)c3ccc(C(F)(F)F)cc23)CC1 | 173 to 175 °C |
| C[C@]12CC(=O)[C@H]3[C@@H](CCC4=CC(=O)CC[C@@H]43)[C@@H]1CCC2=O | 204 to 209 °C |
| CCc1nc2c(C)c(NS(C)(=O)=O)cnc2n1-c1ccc(CCNC(=O)NS(=O)(=O)c2ccc(C)cc2)cc1 | 166 °C |
| CN1CCN(C2=C3N=c4cc(Cl)ccc4=C3Oc3ccccc3N2C)CC1 | 187 to 188 °C |
| O=c1ccc(Oc2ccc3c(c2)CCC2(CCNCC2)O3)n[nH]1 | 233 to 235 °C |
| O=C(CCCCCCNC(=O)C(=O)c1cn2c3c(cccc13)CCC2)NOC1CCCCO1 (stereo unspecified) | 140 to 142 °C |
| CN(C)c1cccc(OC(=O)NC2C(=O)N(CCC3C4CC5CC(C4)CC3C5)c3ccccc3N(c3ccccc3)C2=O)c1 (stereo unspecified) | 188 to 189 °C |
| O=C(O)c1ccc(OCc2ccc3ccccc3n2)cc1 | > 300 °C |
| CCOC(=O)NC1=NN(c2cccc(Cl)c2)C(=O)C1 | 189 °C |

Next, values leading:

| melting point | SMILES |
| --- | --- |
| 90 to 92 °C | CC(O)(CCF)c1ccc(-c2ccc(F)cc2)cc1 (stereo unspecified) |
| 158 to 159 °C | CNC(=O)N1CC(Oc2ccc(Cl)c(Cl)c2)C1 |
| 219 to 221 °C | O=C(O)c1cc([N+](=O)[O-])c(-c2ccccc2)c([N+](=O)[O-])c1 |
| 85 to 87 °C | CCCCCCOc1ccc(-c2nc(-c3ccc(OCCCCCC)cc3O)nc(-c3ccc(OCCCCCC)cc3OCCCCCC)n2)c(O)c1 |
| 52 to 57 °C | CCc1nc(-c2cnccn2)no1 |
| 190 to 191 °C | O=C(Nc1ccc(C(=O)N2Cc3ccccc3Cc3ccccc32)cc1)c1cccc(C(F)(F)F)c1 |
| 201 to 203 °C | Cc1c(C(=O)Nc2ccc(N3CCN(CCCc4cccnc4)CC3)c(C#N)c2)cnn1-c1ccc(Cl)cc1 |
| 175 to 176 °C | Cc1cc(OCc2cnc(-c3cccc(C(F)(F)F)c3)nc2C2CC2)ccc1OC(C)(C)C(=O)O |
| 194 °C | CCc1ccc(C=NNC(=O)c2ccc(O)cc2)s1 |
| 292 to 298 °C | CCCCS(=O)(=O)NC(=O)c1ccc2nc(C)n(Cc3ccc(-c4ccccn4)cc3)c2c1 |
| > 250 °C | NS(=O)(=O)c1ccc(NN=C2C(=O)Nc3ccc(S(N)(=O)=O)cc32)cc1 |
| 72 to 75 °C | CC(C)OC(=O)c1cc(-n2c(Cl)nc(C(F)(F)F)cc2=O)c(F)cc1Cl |
| 179 °C | O=C(c1cc(Br)cc(Br)c1O)c1cc(Br)cc(Br)c1O |
| 72 to 76 °C | Cc1ccc(OC2=C(Oc3ccc([N+](=O)[O-])cc3)C(F)(F)C(F)(F)C2(F)F)cc1 |
| 106 °C | CC(C)CCCC(C)C1CCC2C3CC=C4CC(I)CCC4(C)C3CCC12C (stereo unspecified) |
| > 310 °C | Cc1nc2c(N)nc(-c3ccncc3)nc2[nH]1 |
| 143 to 145 °C | CCOC(=O)C1=C(C)NC(C)=C(C(=O)OCC)C1c1ccccc1/C=C/C(=O)OC(C)(C)C |
| 69 °C | CC(C)(SCC(=O)O)C(NS(=O)(=O)c1ccc(Oc2ccc(F)cc2)cc1)C(=O)O (stereo unspecified) |
| 86 to 87 °C | Cn1c(C#N)ccc1[N+](=O)[O-] |
| 171 to 173 °C | CC1(C)COc2ccc(C(=O)O)cc21 |
| 210 °C | COc1ccc2cc(-c3ccc(Cl)c(-n4nc(C)nc4C)c3)c(=O)oc2c1 |

| melting point | SMILES |
| --- | --- |
| 211 to 213 °C | N#Cc1nn(-c2ccc(S(N)(=O)=O)cc2)c2c1CSc1ccccc1-2 |
| 172 to 174 °C | N=C(Cl)c1c(Cc2ccc(Cl)cc2)nc2ccc(I)cc2c1O |
| 202 to 204 °C | CC1(C)CCSc2cc(C(=O)O)ccc21 |
| 202 to 203 °C | O=C(O)c1ccc(OCCCCn2c(-c3ccccc3)nc(-c3ccccc3)c2-c2ccccc2)cc1 |
| 97 to 99 °C | CCCOc1nc(N)nc2c1ncn2C1C=CC(CO)C1 (stereo unspecified) |
| 195 to 196 °C | CC(C(=O)O)c1ccc2c(c1)C(=O)Cc1cc(Cl)ccc1S2 (stereo unspecified) |
| 133 to 140 °C | CCCCc1nc2c(N)nc3ccccc3c2n1CCOCC#Cc1ccccc1 |
| 154 to 155 °C | CCc1cc(S(=O)(=O)c2ccc(N)cc2)cc(N2CCCC2)n1 |
| 148 to 149 °C | N#CN=CNc1nc(OCc2ccc(F)cc2)ncc1F |
| 68 to 70 °C | O=C(O)CCCCCCCCN1NNN=C1C(c1ccccc1)c1ccccc1 |
| 65 °C | CCCCc1nc(Cl)c(CC(=O)OCC)c(Cc2ccc(C(=O)OC(C)(C)C)cc2)n1 |
| 250 to 270 °C | O=c1[nH]c2nc(C(F)(F)F)cc(C(F)(F)F)c2cc1-c1ccncc1 |
| 91 to 92 °C | CCOC(=O)C(C)NC(=O)CN(C(=O)c1ccc(Cl)cc1)c1c(C)cccc1C (stereo unspecified) |
| 147 to 148 °C | COc1ccc(Cn2cnc3c(-c4ccco4)nc(SC)nc32)cc1 |
| 148 to 149 °C | Cc1c(NC(=O)c2ccc(OC[C@@H]3CCCO3)cc2F)ccc2cc(CNCC(C)(C)O)[nH]c12 |
| 177 °C | O=C(O)CN(CCN(CC(=O)O)C(COCc1ccccc1)C(=O)O)C(COCc1ccccc1)C(=O)O (stereo unspecified) |
| 86 to 88 °C | CCc1c(OCc2ccc(Cl)cc2)cnn(C(C)(C)C)c1=O |
| 272 to 280 °C | COC(=O)NC(=O)Nc1nc2c(C)cccc2s1 |
| 134 °C | COc1ccc(-c2nc(-c3[nH]cc(C)c3C)[nH]c2-c2ccc(OC)cc2)cc1 |
| 98 to 100 °C | N#CC1=C(Nc2cccc(F)c2)CCC1 |
| 65 to 67 °C | O=C(CSc1nc[nH]n1)NC/C=C\COc1cc(CN2CCCCC2)ccn1 |
